Source: article PMC7380166, “How to Study the Metabolism of New Psychoactive Substances for the Purpose of Toxicological Screenings—A Follow-Up Study Comparing Pooled Human Liver S9, HepaRG Cells, and Zebrafish Larvae” (Frontiers in Chemistry, 2020)

How the values were obtained:
[1] = Authentic human urine sample after intake of 4F-MDMB-BINACA, LC-HRMS/MS; assay type: in vivo; conditions: one patient, unknown dose and time point of intake
Method: Human blood and urine collected after a suspected intake of drugs of abuse were submitted to the authors' laboratory for regular clinical toxicological analysis. The blood sample was centrifuged, and plasma was separated. The authors' standard liquid–liquid extraction for human plasma screening was used (Maurer et al., [2016]). Briefly, 1,000 μl of plasma was mixed with 100 μl of internal standard (0.01 μg/μl trimipramine-d3 in methanol) and extracted with 5,000 μl of a mixture of diethyl ether:ethyl acetate (1:1, v/v) after addition of 2,000 μl of saturated sodium sulfate solution. Phase separation was mediated by centrifugation. The organic layer was transferred into a flask and evaporated to dryness at 60°C under reduced pressure. The aqueous residue was then alkalized with 500 μl of 1 M sodium hydroxide and extracted a second time with 5,000 μl of the diethyl ether:ethyl acetate mixture. The organic extract was transferred to the same flask and evaporated as described before. The combined residues were dissolved in 100 μl of methanol and transferred into an autosampler vial, and 5 μl was injected onto the LC-HRMS/MS system. An aliquot of the human urine sample (100 μl) was prepared according to a previous study by precipitation with 500 μl of acetonitrile (Wissenbach et al., [2011]). The mixture was shaken and centrifuged (18,407 × g, 2 min). […]

hCES1b [2] = target: T1, hCES1b (Homo sapiens, UniProt P23141); experiment: Esterases activity screening, hCES1b; assay type: in vitro ADME; set-up: key: +, detected; –, not detected; conditions: 100 μM 4F-MDMB-BINACA, 0.2 mg protein/ml, duplicate
T1 construct: purchased Corning
T1 sequence (P23141 18-567): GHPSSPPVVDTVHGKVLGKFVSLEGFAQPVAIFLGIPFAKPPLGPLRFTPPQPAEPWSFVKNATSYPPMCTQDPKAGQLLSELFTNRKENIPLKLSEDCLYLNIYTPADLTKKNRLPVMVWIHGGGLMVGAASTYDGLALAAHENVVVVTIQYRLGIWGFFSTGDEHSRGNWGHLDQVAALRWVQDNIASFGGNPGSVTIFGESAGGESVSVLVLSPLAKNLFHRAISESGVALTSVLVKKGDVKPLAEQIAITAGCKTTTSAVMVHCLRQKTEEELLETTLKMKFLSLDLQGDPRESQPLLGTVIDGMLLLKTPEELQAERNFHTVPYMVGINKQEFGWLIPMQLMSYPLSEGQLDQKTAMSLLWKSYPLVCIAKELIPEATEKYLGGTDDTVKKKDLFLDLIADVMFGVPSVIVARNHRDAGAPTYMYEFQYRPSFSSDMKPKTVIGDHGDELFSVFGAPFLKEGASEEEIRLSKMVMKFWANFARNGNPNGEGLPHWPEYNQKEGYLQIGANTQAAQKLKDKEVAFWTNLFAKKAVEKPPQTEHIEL
Method: (§1) Experiments were performed in accordance with a previous study (Meyer et al., [2015]) with minor modifications. The final volume per reaction tube was 100 μl with a final 4F-MDMB-BINACA concentration of 100 μM and enzyme concentration of 0.2 mg protein/ml for hCES1b, hCES1c, and hCES2. Incubations with pHLM and pHLS9 (0.2 mg protein/ml, each) were performed in a similar manner. Additionally, incubations with human plasma (50 μl pooled human plasma, 40 μl phosphate buffer, and 10 μl substrate) were performed. The reactions were started by adding the enzyme-containing preparation and terminated with an equal volume of ice-cold acetonitrile containing diazepam-d5 (100 μM) as an internal standard. Only plasma incubations were terminated by addition of a three-fold volume of ice-cold acetonitrile. The reaction mixtures were centrifuged at 18,407 × g for 15 min, and then supernatants were transferred to autosampler vials, and 5 μl was injected onto the LC-HRMS/MS system. Negative control incubations without enzyme were prepared to identify non-metabolically formed compounds. All incubations were done in duplicate.

hCES1b [3] = target: T1, hCES1b; experiment: Esterases activity screening, hCES1b; assay type: in vitro ADME; set-up: key: +, detected; –: −, not detected; conditions: 100 μM 4F-MDMB-BINACA, 0.2 mg protein/ml, duplicate
Method: as §1

COC(=O)C(NC(=O)c1nn(CCCCF)c2ccccc12)C(C)(C)C (stereo not drawn) [4F-MDMB-BINACA, methyl 2-[1-(4-fluorobutyl)-1H-indazole-3-carbonyl]amino-3,3-dimethylbutanoate]
Detectability of the parent compound in urine [1]: barely detectable

O=C(O)c1nn(CCCCF)c2ccccc12 [MB1]
Detection of metabolite in incubation with hCES1b (hCES1b [2]): –

CC(C)(C)C(NC(=O)c1nn(CCCCF)c2ccccc12)C(=O)O (stereo not drawn) [MB8]
Detection of metabolite in incubation with hCES1b (hCES1b [3]): +
